ChEMBL document CHEMBL4387736, “Anticancer saponin OSW-1 is a novel class of selective Golgi stress inducer” (Bioorg Med Chem Lett, 2019)
Each block holds one molecule with its values, some of them ahead of it. The source made the active and inactive calls. The rule behind the calls is not given here.

Assays:
[1] = Drug localization in golgi apparatus of human HeLa cells at 0.5 uM by fluorescence microscopy; assay type: ADME, subcellular
[2] = test system: Panel NCI-60 (60 carcinoma cell lines); experiment: Growth inhibition of human NCI60 cells; assay type: functional
[3] = target: T1, Oxysterol-binding protein 1 (Homo sapiens) (UniProt P22059); experiment: Induction of OSBP localization in golgi apparatus of human HeLa cells assessed as increase in colocalization of 58K golgi protein at 5 nM incubated for 30 mins by immunofluorescence imaging method; assay type: cell-based
T1 sequence (whole entry): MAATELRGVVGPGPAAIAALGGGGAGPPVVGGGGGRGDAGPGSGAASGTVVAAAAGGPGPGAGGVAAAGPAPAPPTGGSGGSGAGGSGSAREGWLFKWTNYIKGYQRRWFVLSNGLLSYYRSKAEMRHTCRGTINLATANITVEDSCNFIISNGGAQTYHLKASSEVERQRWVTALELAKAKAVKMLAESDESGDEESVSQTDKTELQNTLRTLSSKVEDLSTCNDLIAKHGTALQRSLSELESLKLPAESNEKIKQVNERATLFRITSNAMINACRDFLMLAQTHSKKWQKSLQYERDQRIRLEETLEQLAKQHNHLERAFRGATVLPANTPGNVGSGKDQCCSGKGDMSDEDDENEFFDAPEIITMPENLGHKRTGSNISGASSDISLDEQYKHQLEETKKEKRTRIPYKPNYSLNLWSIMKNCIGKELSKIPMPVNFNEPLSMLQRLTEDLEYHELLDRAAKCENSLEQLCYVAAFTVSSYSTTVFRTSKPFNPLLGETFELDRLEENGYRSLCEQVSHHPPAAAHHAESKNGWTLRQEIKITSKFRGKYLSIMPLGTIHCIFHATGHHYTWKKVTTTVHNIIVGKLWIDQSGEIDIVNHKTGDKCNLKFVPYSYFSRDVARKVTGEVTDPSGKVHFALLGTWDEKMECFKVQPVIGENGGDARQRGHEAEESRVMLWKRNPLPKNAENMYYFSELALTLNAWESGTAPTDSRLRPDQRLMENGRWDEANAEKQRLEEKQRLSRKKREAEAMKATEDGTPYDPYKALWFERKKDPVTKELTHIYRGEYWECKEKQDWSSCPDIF

[4] = target: T1, Oxysterol-binding protein 1 (Homo sapiens); experiment: Induction of OSBP localization in golgi apparatus of human HeLa cells assessed as dispersion of GM130 in to cytosol at 2 uM incubated for 6 hrs by immunofluorescence microscopic method; assay type: cell-based
[5] = target: T1, Oxysterol-binding protein 1 (Homo sapiens); experiment: Induction of OSBP localization in golgi apparatus of human HeLa cells assessed as induction of cytosolic OSBP aggregation into vesicular structures at Golgi at 0.5 uM by eYFP detection based time-lapse imaging; assay type: cell-based
[6] = target: T1, Oxysterol-binding protein 1 (Homo sapiens); experiment: Inhibition of OSBP in human HeLa cells assessed as induction of golgi stress by measuring TFE3(S)/TFE3(L) dephosphorylation at 1 uM incubated for 2 hrs by Western blot analysis; assay type: cell-based
[7] = target: T1, Oxysterol-binding protein 1 (Homo sapiens); experiment: Inhibition of OSBP in human HeLa cells assessed as induction of golgi stress by measuring TFE3 nuclear translocation at 2 uM incubated for 4 hrs by immunofluorescence imaging analysis; assay type: cell-based
[8] = target: T1, Oxysterol-binding protein 1 (Homo sapiens); experiment: Inhibition of OSBP in human HeLa cells assessed as induction of golgi stress by measuring increase in TFE3-mediated GM130 mRNA expression at 2 uM incubated for 12 hrs; assay type: cell-based
[9] = target: T1, Oxysterol-binding protein 1 (Homo sapiens); experiment: Inhibition of OSBP in human HeLa cells assessed as induction of golgi stress by measuring downregulation of HSP47 mRNA expression at 2 uM incubated for 12 hrs; assay type: cell-based
[10] = target: T1, Oxysterol-binding protein 1 (Homo sapiens); experiment: Inhibition of OSBP in human HeLa cells assessed as induction of golgi stress by measuring upregulation of ARF4 mRNA expression at 2 uM incubated for 12 hrs; assay type: cell-based
[11] = target: T1, Oxysterol-binding protein 1 (Homo sapiens); experiment: Inhibition of OSBP in human HeLa cells assessed as induction of golgi stress by measuring GASE transactivation at 1 uM incubated for 24 hrs by GASE-luciferase reporter gene assay; assay type: cell-based
[12] = target: T1, Oxysterol-binding protein 1 (Homo sapiens); experiment: Induction of OSBP localization in golgi apparatus of human HeLa cells assessed as dispersion of giantin in to cytosol at 2 uM incubated for 6 hrs by immunofluorescence microscopic method; assay type: cell-based
[13] = target: T1, Oxysterol-binding protein 1 (Homo sapiens); experiment: Inhibition of OSBP in human HeLa cells assessed as induction of golgi stress by measuring increase in TFE3-mediated GCP60 mRNA expression at 2 uM incubated for 12 hrs; assay type: cell-based
[14] = target: T1, Oxysterol-binding protein 1 (Homo sapiens); experiment: Inhibition of OSBP in human HeLa cells assessed as induction of golgi stress by measuring increase in TFE3-mediated UAP1L1 mRNA expression at 2 uM incubated for 12 hrs; assay type: cell-based
[15] = target: T1, Oxysterol-binding protein 1 (Homo sapiens); experiment: Inhibition of OSBP in human HeLa cells assessed as induction of golgi stress by measuring increase in TFE3-mediated SIAT4A mRNA expression at 2 uM incubated for 12 hrs; assay type: cell-based
[16] = test system: HeLa; experiment: Induction of ER stress in human HeLa cells assessed as effect on pATF6(P) level at 1 uM incubated for 1 to 24 hrs by immunoblotting analysis; assay type: functional, cell-based
[17] = test system: HeLa; experiment: Induction of ER stress in human HeLa cells assessed as effect on pATF6(N) level at 1 uM incubated for 1 to 24 hrs by immunoblotting analysis; assay type: functional, cell-based
[18] = test system: HeLa; experiment: Induction of ER stress in human HeLa cells assessed as effect on pXBP1(S) level at 1 uM incubated for 1 to 24 hrs by immunoblotting analysis; assay type: functional, cell-based
[19] = test system: HeLa; experiment: Induction of ER stress in human HeLa cells assessed as effect on P-eIF2alpha level at 1 uM incubated for 1 to 24 hrs by immunoblotting analysis; assay type: functional, cell-based
[20] = test system: HeLa; experiment: Induction of ER stress in human HeLa cells assessed as effect on eIF2alpha level at 1 uM incubated for 1 to 24 hrs by immunoblotting analysis; assay type: functional, cell-based
[21] = test system: HeLa; experiment: Induction of ER stress in human HeLa cells assessed as effect on ATF4 level at 1 uM incubated for 1 to 24 hrs by immunoblotting analysis; assay type: functional, cell-based
[22] = test system: HeLa; experiment: Induction of ER stress in human HeLa cells assessed as effect on CHOP level at 1 uM incubated for 1 to 24 hrs by immunoblotting analysis; assay type: functional, cell-based
[23] = test system: HeLa; experiment: Induction of ER stress in human HeLa cells assessed as effect on CHOP mRNA level at 2 uM incubated for 1 1 hrs by qRT-PCR analysis; assay type: functional, cell-based
[24] = test system: HeLa; experiment: Induction of ER stress in human HeLa cells assessed as effect on BiP mRNA level at 2 uM incubated for 1 1 hrs by qRT-PCR analysis; assay type: functional, cell-based
[25] = test system: HeLa; experiment: Induction of ER stress in human HeLa cells assessed as effect on ERdj4 mRNA level at 2 uM incubated for 1 1 hrs by qRT-PCR analysis; assay type: functional, cell-based

Drug uptake [1]: Active
SMILES: COc1ccc(C(=O)O[C@H]2[C@H](O[C@@H]3[C@@H](OC(C)=O)[C@H](O[C@H]4C[C@H]5[C@@H]6CC=C7C[C@@H](O)CC[C@]7(C)[C@H]6CC[C@]5(C)[C@@]4(O)[C@H](C)C(=O)CCC(C)C)OC[C@@H]3O)OC[C@@H](OC(=O)CN(C)c3ccc(S(=O)(=O)N(C)C)c4nonc34)[C@@H]2O)cc1
GI50 [2]: 4 nM

Activity [3]: Active
Activity [4]: Active
Activity [5]: Active
inhibition [6]: Active
inhibition [7]: Active
inhibition [8]: Active
inhibition [9]: Active
inhibition [10]: Active
inhibition [11]: Active
Activity [12]: Active
inhibition [13]: Active
inhibition [14]: Active
inhibition [15]: Active
SMILES: COc1ccc(C(=O)O[C@H]2[C@H](O[C@@H]3[C@@H](OC(C)=O)[C@H](O[C@H]4C[C@H]5[C@@H]6CC=C7C[C@@H](O)CC[C@]7(C)[C@H]6CC[C@]5(C)[C@@]4(O)[C@H](C)C(=O)CCC(C)C)OC[C@@H]3O)OC[C@@H](O)[C@@H]2O)cc1
GI50 [2]: 0.78 nM
Activity [16]: inactive
Activity [17]: inactive
Activity [18]: inactive
Activity [19]: inactive
Activity [20]: inactive
Activity [21]: inactive
Activity [22]: inactive
Activity [23]: inactive
Activity [24]: inactive
Activity [25]: inactive
